Article PMC12113347, “Compound 3d Attenuates Metabolic Dysfunction-Associated Steatohepatitis via Peroxisome Proliferator-Activated Receptor Pathway Activation and Inhibition of Inflammatory and Apoptotic Signaling” (Metabolites, 2025)

Legend:
[1] = In vitro stability in DMEM medium, simulated gastric fluid and simulated intestinal fluid (HPLC); assay type: in vitro ADME; conditions: 40 μM, 37 °C
Experimental: Elafibranor and 3d (40 μM) were dissolved in DMEM medium, as well as in simulated gastric fluid (SGF) and simulated intestinal fluid (SIF), respectively, at 37 °C. The concentration of the compounds was determined within 24 h by HPLC. The HPLC conditions comprised an ACQUITY UPLC BEH C18 column maintained at 40 °C with a mobile phase consisting of 20% ultrapure water and 80% acetonitrile, with a flow rate of 1 mL/min at 360 nm.

[2] = tested on: L02 cells; test: Effect of 3d on L02 cell proliferation/survival (Figure 1C); assay type: cell-based, human; conditions: 3d alone
[3] = tested on: L02 cells; test: ROS assay (DCFH-DA, flow cytometry) in FFA-treated L02 cells; assay type: cell-based, human; conditions: FFA-induced L02 cells
Source text: L02 cells were inoculated in 6-well plates at 1 × 10^5 cells/mL, and after completing the lipid-accumulating cell modeling treatment according to the method described in 2.1, the cells were collected and washed with 1× PBS buffer.
Reactive oxygen species (ROS) assay: ROS production was detected in the collected cells using a DCFH-DA fluorescent probe diluted in serum-free medium, and the stained cells were washed with 1× PBS buffer 3 times and then analyzed by flow cytometry.

[4] = tested on: PPAR-related proteins; test: Western blotting of PPAR-related proteins in FFA-stimulated L02 cells; assay type: cell-based, human; conditions: Figure 6A
Experimental: Proteins were extracted using RIPA lysate and a BCA kit for protein concentration, separated by SDS-PAGE gel electrophoresis, and transferred to PVDF membranes. The membranes were sealed with 5% skimmed milk and incubated at 4 °C overnight with primary antibodies, followed by co-incubation with the corresponding secondary antibodies. The protein bands were imaged using an infrared laser imager and quantitatively analyzed by ImageJ software. The antibodies used for Western blot were Acox1 (Abcam, ab184032), Acaa1 (Abcam, ab154091), EHHADH (Abcam, ab123490), PPARγ (Abcam, ab272718), PPARα (Abcam, ab314112), PPARδ (Abcam, ab178866), P38 (Abcam, ab31828), p-P38 (Abcam, ab195049), Bcl-2 (Abcam, ab182858), Caspase8 (Abcam, ab25901), anti-rabbit IgG (CST, 7074 S), and α-tubulin (Abcam, ab7291).

[5] = tested on: L02 cells; test: FFA-induced lipid accumulation model in L02 cells (TG and ALT kits, Oil Red O); assay type: cell-based, human; conditions: 0.9 mM FFA
Experimental: Free fatty acids (FFAs, OA:PA = 2:1) were used to induce the lipid model in L02 cells (Guangzhou Huatuo Biological Technology Co., Ltd., Guangzhou, China). The L02 cells (1 × 10^5 cells/mL) were inoculated in 12-well plates. After 24 h, the cells were starved for 12 h and then treated with DMSO or FFAs for 24 h. Subsequently, the cells were exposed to fenofibric acid (100 μM) or 3d (10, 20, 40 μM) for another 24 h.
The cells were collected and lysed using cell lysis solution; the supernatants were subjected to triglycerides (TGs) and alanine aminotransferase (ALT) kit assays. Moreover, following the completion of the treatment, the cells were fixed with 4% paraformaldehyde and stained with an Oil Red O, with the objective of observing the morphology under an inverted microscope.

[6] = tested on: C57BL/6J male mice; test: HFD-induced MASH model in mice: serum and liver biochemistry, body and liver weight, histology; assay type: in vivo
Experimental: All animal studies were conducted in accordance with national legislation and local guidelines at the Center for Laboratory Animals in Tianjin University of Science and Technology and approved by the Animal Ethics Committee of Tianjin University of Science and Technology (8 March 2022, Tianjin, China). The C57BL/6J male mice (6 weeks) were purchased from Henan Scribex Biotechnology Co, Ltd (Zhenzhou, China). Following a one-week period of acclimatization, the mice were fed a high-fat diet (HFD) comprising 60% fat (TP23300, Trophic Animal Feed High-Tech Co., Ltd., (Nantong, China)) and a low-fat control diet (TP23302, Trophic Animal Feed High-Tech Co., Ltd., (Nantong, China)) for 16 weeks.
After 16 weeks of continuous feeding on a high-fat diet, key indicators were tested to determine modeling success and drug administration was initiated. The mice were randomly divided into seven groups (n = 10) according to their body weight. The groups were as follows: control group (control diet, 0.5% CMC-Na), model group (HFD, 0.5% CMC-Na), positive control group (HFD, 100 mg/kg Fenofibrate), elafibranor group (HFD, 30 mg/kg), and 3d group (HFD, 3, 10, 30 mg/kg). The experiment was conducted over a period of eight weeks.
After fasting for 12 h, the mice were anaesthetized and blood samples were collected, as were the mice liver tissues. The ileal contents were collected and immediately frozen in liquid nitrogen and then transferred to storage at −80 °C. The blood samples were subjected to centrifugation at 3000 rpm/min for 10 min to obtain supernatant serum, which was stored at −80 °C. The liver tissues were weighed, and a portion of the liver was preserved in 4% paraformaldehyde for subsequent pathological sectioning, including staining with H&E, Masson, and Oil Red O. The remaining samples were stored at −80 °C for testing of various biochemical indices.
The serum levels of TG, total cholesterol (TC), low-density lipoprotein cholesterol (LDL-C), […] aminotransferase (AST), ALT, and TNF-α were determined according to the instructions of the kit. The levels of glutathione (GSH) and superoxide dismutase (SOD) were measured using liver tissue homogenates. The kits were purchased from the Nanjing Jiancheng Institute of Biological Engineering (Nanjing, China).

[7] = HFD mice, liver tissue homogenates
[8] = HFD-fed mice, 30 mg/kg, p < 0.05 vs. model

- concentration in culture medium (stability) ([1]; DMEM, within 24 h): remained relatively constant
- concentration in gastric fluid (stability) ([1]; SGF): decreased significantly after 60 min
- concentration in intestinal fluid (stability) ([1]; SIF, within 24 h): remained relatively constant
SMILES: CNc1ccc(C(=O)/C=C/c2cc(C)c(OC(C)(C)C(=O)OC(C)(C)C)c(C)c2)cc1 [3d]
- cell survival of L02 cells [2]: significantly increased cell survival
- intracellular ROS levels [3]: significant decrease in ROS levels
- PPAR-related proteins in L02 cells [4]: significantly increased
- intracellular lipid accumulation (Oil Red O morphology) [5]: diminished intracellular lipid accumulation
- ALT activity ([5]; 3d 10, 20, 40 μM, 24 h): notable reduction
- intracellular TG levels ([5]; 3d 10, 20, 40 μM, 24 h): notable reduction
- liver fibrosis (Masson staining) ([6]; HFD mice): successfully reversed
- liver steatosis and lipid accumulation (HE, Oil Red O sections) ([6]; HFD mice): significantly reduce the steatosis and ballooning in the liver and bring it back to normal
- serum TNF-α levels ([6]; HFD mice): reversed and returned to normal levels
- serum levels of LDL-C ([6]; HFD mice): markedly diminish
- body weight ([6]; HFD mice, 8 weeks of treatment): no significant effect
- serum TG levels ([6]; HFD mice, 8 weeks, fenofibrate 100 mg/kg, elafibranor 30 mg/kg, 3d 3, 10, 30 mg/kg): decreased and returned to normal levels
- liver GSH content [6, 7]: counteracting the reduction
- liver SOD content [6, 7]: counteracting the reduction
- TC levels ([6]; HFD mice, 3d 3, 10, 30 mg/kg): dose-dependent reduction
- serum ALT activity ([6]; HFD mice, 3d 3, 10, 30 mg/kg): dose-dependent reduction
- serum AST activity ([6]; HFD mice, 3d 3, 10, 30 mg/kg): dose-dependent reduction
- serum LDL-C decline [6, 8]: 45%
- serum TC reduction [6, 8]: 32%
- serum TG decrease [6, 8]: 39%
- serum TNF-α reduction [6, 8]: 57%
